Data on 14 compounds can be found in ChEMBL document CHEMBL1127984, “Beneficial replacement of the P1 phenylalanine side chain in HIV-1 protease inhibitors of the difluorostatone type” (Bioorg Med Chem Lett, 1994).

Some results are limits rather than exact numbers.

The subject of experiment [1] is MT4. Briefly: […]. The format is functional. The following applies: Homo sapiens.
In experiment [2] the test system is MT4. Description: Effective dose that inhibits cellular growth of MT-4 cells infected with HIV-1 RF strain. The following applies: Homo sapiens. The format is functional, cell-based.
The nature of experiment [3]: Ratio between Cytotoxic dose and effective dose was determined. The format is functional.
Experiment [4] has as its target Human immunodeficiency virus type 1 protease (Human immunodeficiency virus 1, UniProt Q72874). Description: Compound was tested for inactivation of purified HIV-1 protease in vitro.
Experiment [5] has as its system H9. Briefly: Effective dose that inhibits cellular growth of H9 cells infected with HIV-1 RF strain. The format is functional, cell-based. The following applies: Homo sapiens.
Experiment [6] deals with CCRF-CEM. Description: Effective dose that inhibits cellular growth of CEM cells infected with HIV-1 IIIB strain. The following applies: Homo sapiens. The format is functional, cell-based.
Experiment [7] relates to C8166. Description: Effective dose that inhibits cellular growth of C8166 cells infected with HIV-1 RF strain. The format is functional, cell-based. The following applies: Homo sapiens.
Experiment [8] concerns H9. Description: Effective dose that inhibits cellular growth of H9 cells infected with HIV-1 IIIB strain. The settings on record: Homo sapiens. The format is functional, cell-based.
For experiment [9], the system named is C8166. Description: Cytotoxic dose against HIV-1 was determined in C8166 cells. The format is functional. The settings on record: Homo sapiens.
Experiment [10] has as its system C8166. Description: Effective dose that inhibits cellular growth of C8166 cells infected with HIV-2 rod strain. The format is functional, cell-based. The following applies: Homo sapiens.
The subject of experiment [11] is H9. Briefly: Effective dose that inhibits cellular growth of H9 cells infected with HIV-1 U455 strain. The format is functional, cell-based. The following applies: Homo sapiens.
Experiment [12] deals with MT2. Description: Effective dose that inhibits cellular growth of MT2 cells infected with HIV-1 105/F strain. The following applies: Homo sapiens. The format is functional, cell-based.
The test system of experiment [13] is MT2. Briefly: Effective dose that inhibits cellular growth of MT2 cells infected with HIV-1 105/A strain. The format is functional, cell-based. The following applies: Homo sapiens.
For experiment [14], the system named is JM1. Description: Effective dose that inhibits cellular growth of JM cells infected with HIV-1 GB8 strain. The format is functional, cell-based. The settings on record: Homo sapiens.
Experiment [15] concerns JM1. Description: Cytotoxic dose against HIV-1 GB8 strain was determined in JM cells. The format is functional. The settings on record: Homo sapiens.
For experiment [16], the species on record is Homo sapiens. Description: Effective dose that inhibits cellular growth of PBMCs cells infected with HIV-1 CCI strain. The format is functional, cell-based. The settings on record: PBMC.
For experiment [17], the system named is C8166. Description: Effective dose that inhibits cellular growth of C8166 cells infected with SIV mac251 strain. The following applies: Homo sapiens.

As usually defined, the EC50 is the concentration needed to bring the measured effect to its halfway point. Low values mean higher potency in that assay, high ones lower potency in that assay. In [1], `CC(C)[C@H](NC(=O)OCc1ccccc1)C(=O)NC(Cc1ccc(OCc2ccccc2)cc1)C(=O)C(F)(F)C(=O)N1CCOCC1` (some centres undefined) came in with a CC50 of 64000 nM. In [2], this compound had an EC50 of 3200 nM. The Ratio in experiment [3] was determined as 20. In experiment [4], the Ki was found to be 5 nM.

By IC50 is commonly meant the concentration that inhibits the measured activity by half. Lower therefore signals inhibition by little substance. For `O=C(NC(C(=O)NC(Cc1ccc(OCc2ccccc2)cc1)C(=O)C(F)(F)C(=O)NCc1ccccc1)C1CCCCC1)OCc1ccccc1` (centres undefined), the CC50 in experiment [1] was greater than 100000 nM. This compound showed an EC50 in [2] greater than 100000 nM. It took 70 nM to reach half-maximal inhibition in experiment [4] (IC50).

In experiment [1], `CC(C)[C@H](NC(=O)CCc1cccnc1)C(=O)NC(Cc1ccc(OCc2ccccc2)cc1)C(=O)C(F)(F)C(=O)NCc1ccccc1` (some centres undefined) returned a CC50 greater than 100000 nM. In addition, the EC50 in experiment [2] amounted to 320 nM. In addition, in [3], the Ratio is given as greater than 100. The same compound returned an IC50 in [4] of 8 nM.

`CC(C)[C@H](NC(=O)OCc1ccccc1)C(=O)NC(Cc1ccc(OCc2ccccc2)cc1)C(=O)C(F)(F)C(=O)N(C)Cc1ccccc1` (some centres undefined) returned a CC50 in experiment [1] greater than 100000 nM. This compound also gave an EC50 in experiment [2] of 280 nM. In experiment [3], the Ratio is reported as greater than 300. Moreover, the Ki in [4] is 0.4 nM.

On to `CC(C)[C@H](NC(=O)OC(C)(C)C)C(=O)NC(Cc1ccc(OCc2ccccc2)cc1)C(=O)C(F)(F)C(=O)NCc1ccccc1` (some centres undefined), for which the CC50 in experiment [1] is 10000 nM. Further, the EC50 in [2] was greater than 10000 nM.

Turning to `O=C(NC(C(=O)NC(Cc1ccc(OCc2ccccc2)cc1)C(=O)C(F)(F)C(=O)NCc1ccccc1)C1CCCC1)OCc1ccccc1` (centres undefined), the CC50 in experiment [1] was greater than 100000 nM. Moreover, in [3], the Ratio is recorded as greater than 33. The same compound had an IC50 in [4] of 6 nM.

Regarding `CC(C)[C@H](NC(=O)OCc1ccccc1)C(=O)NC(Cc1ccccc1)C(=O)C(F)(F)C(=O)N1CCc2ccccc2C1` (some centres undefined), half-maximal inhibition in experiment [4] (IC50) required 50 nM.

In the case of `CC(C)C[C@H](NC(=O)OCc1ccccc1)C(=O)NC(Cc1ccc(OCc2ccccc2)cc1)C(=O)C(F)(F)C(=O)NCc1ccccc1` (some centres undefined), the CC50 in experiment [1] came out at 3200 nM. Also, the EC50 in [2] was found to be 190 nM. For the same compound, in [3], the Ratio stood at 17. The same compound registered an IC50 in experiment [4] of 15 nM.

Consider `CC(C)[C@H](NC(=O)OCc1ccccc1)C(=O)NC(Cc1ccccc1)C(=O)C(F)(F)C(=O)NCc1ccccc1` (some centres undefined), for which the CC50 in [1] is 23000 nM. The compound also yielded an EC50 in experiment [2] of 5000 nM. The Ratio in experiment [3] was roughly 5. This compound also showed a Ki in [4] of 1 nM.

`CC(C)[C@H](NC(=O)OCc1ccccc1)C(=O)NC(Cc1ccccc1)C(=O)C(F)(F)C(=O)N1CCOCC1` (some centres undefined): the CC50 in experiment [1] was greater than 100000 nM. The compound further gave an EC50 in experiment [2] of 50000 nM. For the same compound, the Ratio in [3] is greater than 2. The Ki in experiment [4] amounted to 70 nM.

`CCN(Cc1ccccc1)C(=O)C(F)(F)C(=O)C(Cc1ccc(OCc2ccccc2)cc1)NC(=O)[C@@H](NC(=O)OCc1ccccc1)C(C)C` (some centres undefined) returned a CC50 in experiment [1] of 10000 nM. In experiment [2], this compound returned an EC50 of 8000 nM. The Ratio in [3] is listed as roughly 1. Moreover, the IC50 in experiment [4] was 15 nM.

The compound `CC(C)[C@H](NC(=O)OCc1ccccc1)C(=O)NC(Cc1ccc(OCc2ccccc2)cc1)C(=O)C(F)(F)C(=O)N1CCc2ccccc2C1` (some centres undefined) registered a CC50 in experiment [1] greater than 100000 nM. In addition, it took 360 nM to reach a half-maximal effect in experiment [2] (EC50). For the same compound, the Ratio in experiment [3] was greater than 280. Moreover, the IC50 in experiment [4] worked out at 2 nM.

As for `CC(C)[C@H](NC(=O)OCc1ccccc1)C(=O)NC(Cc1ccc(OCc2ccccc2)cc1)C(=O)C(F)(F)C(=O)NCc1ccccc1` (some centres undefined), the CC50 in experiment [1], in experiment [9] and in experiment [15] was greater than 100000 nM in each case. Further, the EC50 in experiment [5] was determined as 56 nM; in experiment [6] it was 720 nM; in experiment [7], 100 nM; in [8], 290 nM; in experiment [10] it was 350 nM; in experiment [11] it was 420 nM. Also, the EC50 in experiment [12] came out at 380 nM; in experiment [13], 230 nM; in experiment [2], 300 nM; in experiment [14], 140 nM; in [16] it was 560 nM; in experiment [17] it was 630 nM. Besides, the Ratio in experiment [3] is greater than 300. This compound also returned a Ki in experiment [4] of 5 nM.

For the compound `CC(C)[C@H](NS(=O)(=O)Cc1ccccc1)C(=O)NC(Cc1ccc(OCc2ccccc2)cc1)C(=O)C(F)(F)C(=O)NCc1ccccc1` (some centres undefined), the IC50 in [4] was 48000 nM.
